Assay results published in patent publication US7855212B2, “Pyridinyl acetonitriles” (Merck Serono SA, priority 2003, dated 2010).

Key:
human GSK3 beta = human GSK3 beta (Homo sapiens, UniProt P49841); experiment: GSK3β in vitro assay (33P phosphorylation of phospho GS2 peptide); assay type: biochemical; conditions: in vitro potency on human GSK3 beta; read-out: IC50 (μM) GSK3beta
Description: GSK3β Assay (see Bioorg. Med. Chem. Lett by Naerum et al. 12 p. 1525-1528 (2002))
In a final reaction volume of 25 μl, GSK3β (h) (5-10 mU) is incubated with 8 mM MOPS pH 7.0, 0.2 mM EDTA, 20 μM […](p)EDEEE (being the GSK3 substrate; a phospho GS2 peptide), 10 mM Mg Acetate and [γ-^33P-ATP] (Specific activity approx. 500 cpm/pmol, concentration as required). The reaction is initiated by the addition of Mg^2+ [γ-^33P-ATP]. After incubation for 40 minutes at room temperature, the reaction is stopped by the addition of 5 μl of a 3% phosphoric acid solution. 10 μl of the reaction is then spotted onto a P30 filtermat and washed three times for 5 minutes in 50 mM phosphoric acid and once in methanol prior to drying and the degree of phosphorylation of the substrate is determined by scintillation counting.

rat JNK3 = rat JNK3 (Rattus norvegicus, UniProt P49187); experiment: JNK3 in vitro assay (33P incorporation into c-Jun, SPA); assay type: biochemical; conditions: in vitro potency on rat JNK3; read-out: JUNK3 IC50
Description: The compounds of the present invention are inhibitors of JNKs. The phosphorylation of c-jun by JNK2 or JNK3 may be determined by monitoring the incorporation of ^33P into c-jun following the protocol below. The inhibitory activity of the compounds according to formula I, towards c-jun phosphorylation through JNK, is determined by calculating phosphorylation activity in the presence or absence of compounds according to formula I.
JNK3 and/or -2 assays are performed in 96 well MIT plates: incubation of 0.5 μg of recombinant, pre-activated GST-JNK3 or GST-JNK2 with 1 μg of recombinant, biotinylated GST-c-Jun and 2 μM ^33γ-ATP (2 nCi/μl), in the presence or absence of compounds according to formula I and in a reaction volume of 50 μl containing 50 mM Tris-HCl, pH 8.0; 10 mM MgCl2; 1 mM Dithiothreitol, and 100 μM NaVO4. The incubation is performed for 120 min. at R.T and stopped upon addition of 200 μl of a solution containing 250 μg of Streptavidine-coated SPA beads (Amersham, Inc.)*, 5 mM EDTA, 0.1% Triton X-100 and 50 μM ATP, in phosphate saline buffer.
After incubation for 60 minutes at RT, beads are sedimented by centrifugation at 1500×g for 5 minutes, resuspended in 200 μl of PBS containing 5 mM EDTA, 0.1% Triton X-100 and 50 μM ATP and the radioactivity measured in a scintillation β counter, following sedimentation of the beads as described above.

Chain of human GSK3 beta (P49841 whole entry): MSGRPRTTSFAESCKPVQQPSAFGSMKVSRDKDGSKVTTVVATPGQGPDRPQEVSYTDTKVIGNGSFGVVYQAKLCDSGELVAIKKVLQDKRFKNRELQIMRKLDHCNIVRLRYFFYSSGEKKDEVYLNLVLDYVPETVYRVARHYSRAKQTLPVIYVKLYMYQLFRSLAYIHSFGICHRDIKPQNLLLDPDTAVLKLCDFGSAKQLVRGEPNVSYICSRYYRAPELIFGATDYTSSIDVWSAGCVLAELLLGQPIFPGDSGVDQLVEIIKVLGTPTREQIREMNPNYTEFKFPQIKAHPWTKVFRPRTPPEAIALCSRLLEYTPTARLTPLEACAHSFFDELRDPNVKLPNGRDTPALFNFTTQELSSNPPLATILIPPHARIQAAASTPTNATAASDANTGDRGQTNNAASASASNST
Chain of rat JNK3 (P49187 whole entry): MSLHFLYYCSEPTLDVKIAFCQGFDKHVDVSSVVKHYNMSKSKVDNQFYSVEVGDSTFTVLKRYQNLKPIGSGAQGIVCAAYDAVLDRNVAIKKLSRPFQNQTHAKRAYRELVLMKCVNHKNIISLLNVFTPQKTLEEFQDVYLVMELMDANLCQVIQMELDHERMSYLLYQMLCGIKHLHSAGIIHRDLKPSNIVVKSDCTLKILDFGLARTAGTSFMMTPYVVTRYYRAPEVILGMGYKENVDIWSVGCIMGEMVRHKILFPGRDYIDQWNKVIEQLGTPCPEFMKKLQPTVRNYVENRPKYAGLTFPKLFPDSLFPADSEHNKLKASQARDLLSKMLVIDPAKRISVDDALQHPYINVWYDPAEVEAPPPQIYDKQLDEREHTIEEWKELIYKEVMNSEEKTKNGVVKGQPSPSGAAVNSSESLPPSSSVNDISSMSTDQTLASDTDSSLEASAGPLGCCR

Row | Compound | IC50 (human GSK3 beta) [µM] | IC50 (rat JNK3) [nM]
1 | Cc1cnc(NCCc2cccnc2)nc1/C(C#N)=C1/C=CC=CN1 [Example 3, 4-pyrimidineacetonitrile, 5-methyl-2-[[2-(3-pyridinyl)ethyl]amino]-alpha-2(1H)-pyridinylidene-] | 0.5 | –
2 | Cc1cnc(NCCc2ccc(N(C)C)nc2)nc1/C(C#N)=C1/C=CC=CN1 [Example 4, 4-pyrimidineacetonitrile, 2-[[2-[6-(dimethylamino)-3-pyridinyl]ethyl]amino]-5-methyl-alpha-2(1H)-pyridinylidene-] | – | 480
3 | Cc1cnc(NC2CCCCC2)nc1/C(C#N)=C1/C=CC=CN1 [Example 8, 4-pyrimidineacetonitrile, 2-(cyclohexylamino)-5-methyl-alpha-2-pyridinyl-] | – | 70
4 | Cc1cnc(NCC2CCCCC2)nc1/C(C#N)=C1/C=CC=CN1 [Example 9, 4-pyrimidineacetonitrile, 2-[(cyclohexylmethyl)amino]-5-methyl-alpha-2 pyridinyl-] | – | 486
5 | Cc1cnc(NC2CCC2)nc1/C(C#N)=C1/C=CC=CN1 [Example 11, 4-pyrimidineacetonitrile, 2-(cyclobutylamino)-5-methyl-alpha-2(1H)-pyridinylidene] | – | 106
6 | Cc1cnc(NC2CCN(C(=O)OC(C)(C)C)CC2)nc1/C(C#N)=C1/C=CC=CN1 [Example 12, 1-piperidinecarboxylic acid, 4-[[4-[(E)-cyano-2(1H)-pyridinylidenemethyl]-5-methyl-2-pyrimidinyl]amino]-, 1,1-dimethylethyl ester] | – | 1140
7 | CCN1C=CC=C/C1=C(\C#N)c1nc(NC2CCCC2)ncc1C [Example 14, 4-pyrimidineacetonitrile, 2-(cyclopentylamino)-alpha-(1-ethyl-2(1H)-pyridinylidene)-5-methyl] | – | 6200
8 | Cc1cnc(NC2CC2)nc1/C(C#N)=C1/C=CC=CN1 [Example 15, 4-pyrimidineacetonitrile, 2-(cyclopropylamino)-5-methyl-alpha-2-pyridinyl-] | 0.2 | 299
9 | Cc1cnc(NC2CCN(Cc3ccccc3)CC2)nc1/C(C#N)=C1/C=CC=CN1 [Example 16, 4-pyrimidineacetonitrile, 5-methyl-2-[[1-(phenylmethyl)-4-piperidinyl]amino]-alpha-2(1H)-pyridinylidene-] | – | 665
10 | Cc1cnc(NCC(C)C)nc1/C(C#N)=C1/C=CC=CN1 [Example 20, 4-pyrimidineacetonitrile, 5-methyl-2-[(2-methylpropyl)amino]-alpha-2(1H)-pyridinylidene-] | – | 210
11 | Cc1cnc(NC(C)C)nc1/C(C#N)=C1/C=CC=CN1 [Example 21, 4-pyrimidineacetonitrile, 5-methyl-2-[(1-methylethyl)amino]-alpha-2(1H)-pyridinylidene-] | – | 310
12 | Cc1cnc(N[C@H]2CCCC[C@@H]2O)nc1/C(C#N)=C1/C=CC=CN1 [Example 22, 4-pyrimidineacetonitrile, 2-[[(1S,2S)-2-hydroxycyclohexyl]amino]-5-methyl-alpha-2(1H)-pyridinylidene-] | – | 740
13 | CCCC(C)Nc1ncc(C)c(/C(C#N)=C2/C=CC=CN2)n1 (stereo not drawn) [Example 25, 4-pyrimidineacetonitrile, 5-methyl-2-[(1-methylbutyl)amino]-alpha-2-pyridinyl-] | 0.17 | –
14 | N#CC(=C1C=CNC=C1)c1ccnc(NCCc2cccnc2)n1 [Example 34, 4-pyrimidineacetonitrile, alpha-4-pyridinyl-2-[[2-(3-pyridinyl)ethyl]amino]-] | 1.5 | –
15 | CNc1nc(NCCc2cccnc2)nc(/C(C#N)=C2/C=CC=CN2)n1 [Example 49, 1,3,5-triazine-2-acetonitrile, 4-(methylamino)-alpha-2-pyridinyl-6-[[2-(3-pyridinyl)ethyl]amino]-] | 7.7 | –
16 | Cc1cnc(Cl)nc1/C(C#N)=C1/C=CC=CN1 [Intermediate 5, 4-pyrimidineacetonitrile, 2-chloro-5-methyl-alpha-2(1H)-pyridinylidene-] | – | 2350
